Results from patent US20040009195A1, “Modified sialic acid vaccines” (priority 2003, published 2004).

System: SK-Mel-28 human melanoma cells
Test: Expression of modified GD3 after incubation with modified precursors (flow cytometry, CE-MS)
Assay type: cell-based
Details: 1 mg/ml precursor concentration; in agreement with flow cytometry
Experimental: SK-Mel-28 human melanoma cells normally expressing GD3 were incubated with modified sialic acid precursors. The modified sialic acid precursors used were N-acylated Mannosamines(“ManNAc”), including: N-propionyl mannosamine (“ManNPr”), N-butyril mannosamine (“ManNBu”), and N-benzoyl mannosamine (“ManNBz”).
The incorporation and metabolism of the surface GD3 antigen were also investigated. […] Modified GD3 on SK-Mel-28 cells in vitro was still found 10 days after removal of precursors from the growth medium, when two populations of antigens, unmodified and modified GD3 were detected by mAb R24 and respective antiserum.
The relative quantity of modified and unmodified GD3 expressed on the SK-Mel-28 was analysed by capillary electrophoresis-mass spectroscopy (“CE-MS”). The glycolipids extracted from cells grown in various concentrations of ManNBu were separated by capillary electrophoresis and negative charged glycolipids were detected. GD3 was the dominant ganglioside found in SK-Mel-28 cells. When ManNBu was added to the medium, the modified GD3 was biosynthesized and expressed.

CCCC(=O)N[C@@H]1C(O)O[C@H](CO)[C@@H](O)[C@@H]1O (stereo partly shown) [ManNBu, N-butyril mannosamine]
Relative expression of modified GD3 by CE-MS: well expressed
